Laboratory results published in patent US11078189B2, “Pharmaceutical compounds” (REVIRAL LIMITED, priority 2017, dated 2021).

Legend:
Type in all cases: in vitro ADME
[1] = Liver microsomal stability, human; details: pooled liver microsomes, pH 7.4; human liver microsomes 0.5 mg/mL; 3 μM compound; read-out: Liver Microsoinal Stability t1/2, human
Procedure: Pooled liver microsomes are purchased from a reputable commercial supplier and stored at −80° C. prior to use. Microsomes (final protein concentration 0.5 mg/mL), 0.1 M phosphate buffer pH 7.4 and test compound (final substrate concentration 3 μM; final DMSO concentration 0.25%) are pre-incubated at 37° C. prior to the addition of NADPH (final concentration 1 mM) to initiate the reaction. The final incubation volume is 50 uL. A control incubation is included for each compound tested where 0.1 M phosphate buffer pH 7.4 is added instead of NADPH (minus NADPH). Two control compounds are included with each species. All incubations are performed singularly for each test compound. Each compound is incubated for 0, 5, 15, 30 and 45 min. The control (minus NADPH) is incubated for 45 min only. The reactions are stopped by transferring 20 μL of incubate to 60 μL MeOH at the appropriate time points. The termination plates are centrifuged at 2,500 rpm for 20 min at 4° C. to precipitate the protein. Following protein precipitation, the sample supernatants are combined in cassettes of up to 4 compounds, internal standard is added and samples analysed by LC-MS/MS. From a plot of In peak area ratio (compound peak area/internal standard peak area) against time, the gradient of the line is determined. Subsequently, half-life and intrinsic clearance are calculated.

MDR1 = experiment: in vitro; details: dog, MDCK-MDR1
Procedure: MDR1-MDCK cells obtained from the NIH (Rockville, Md., USA) are used between passage numbers 6-30. Cells are seeded onto Millipore Multiscreen Transwell plates at 3.4×10^5 cells/cm^2. The cells are cultured in DMEM and media is changed on day 3. On day 4 the permeability study is performed. Cell culture and assay incubations are carried out at 37° C. in an atmosphere of 5% CO2 with a relative humidity of 95%. On the day of the assay, the monolayers are prepared by rinsing both basolateral and apical surfaces twice with Hanks Balanced Salt Solution (HBSS) at the desired pH warmed to 37° C. Cells are then incubated with HBSS at the desired pH in both apical and basolateral compartments for 40 min to stabilise physiological parameters.
The dosing solutions are prepared by diluting test compound with assay buffer to give a final test compound concentration of 10 μM (final DMSO concentration of 1% v/v). The fluorescent integrity marker lucifer yellow is also included in the dosing solution. Analytical standards are prepared from test compound DMSO dilutions and transferred to buffer, maintaining a 1% v/v DMSO concentration.
For assessment of A-B permeability, HBSS is removed from the apical compartment and replaced with test compound dosing solution. The apical compartment insert is then placed into a companion plate containing fresh buffer (containing 1% v/v DMSO). For assessment of B-A permeability, FIBSS is removed from the companion plate and replaced with test compound dosing solution. Fresh buffer (containing 1% v/v DMSO) is added to the apical compartment insert, which is then placed into the companion plate. At 60 min the apical compartment inserts and the companion plates are separated and apical and basolateral samples diluted for analysis. Test compound permeability is assessed in duplicate. Compounds of known permeability characteristics are run as controls on each assay plate.
Test and control compounds are quantified by LC-MSMIS cassette analysis using an 8-point calibration with appropriate dilution of the samples. The starting concentration (C0) is determined from the dosing solution and the experimental recovery calculated from C0 and both apical and basolateral compartment concentrations. The integrity of the monolayer throughout the experiment is checked by monitoring lucifer yellow permeation using fluorimetric analysis. Lucifer yellow permeation is high if monolayers have been damaged.

CYP2B6 = molecular target: T1, CYP2B6 (Homo sapiens, UniProt P20813); experiment: Cytochrome P450 inhibition CYP2B6; details: human liver microsomes
T1 construct: from tissue; host or cells: human liver microsomes
T1 sequence (P20813 1-491): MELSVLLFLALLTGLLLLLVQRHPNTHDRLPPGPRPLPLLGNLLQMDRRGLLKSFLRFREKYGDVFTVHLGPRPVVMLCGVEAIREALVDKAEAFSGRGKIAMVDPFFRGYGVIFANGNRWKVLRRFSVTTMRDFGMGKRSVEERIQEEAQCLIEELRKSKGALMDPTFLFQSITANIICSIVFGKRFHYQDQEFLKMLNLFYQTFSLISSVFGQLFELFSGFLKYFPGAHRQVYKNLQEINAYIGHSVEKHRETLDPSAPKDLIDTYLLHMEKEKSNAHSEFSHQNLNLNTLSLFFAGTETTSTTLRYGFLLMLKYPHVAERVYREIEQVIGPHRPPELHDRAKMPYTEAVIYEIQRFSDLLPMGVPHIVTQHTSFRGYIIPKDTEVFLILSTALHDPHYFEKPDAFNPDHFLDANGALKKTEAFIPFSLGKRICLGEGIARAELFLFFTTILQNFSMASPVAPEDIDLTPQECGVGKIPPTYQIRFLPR
Procedure: (§1) Test compound (0.1, 0.25, 1, 2.5, 10, 25 μM in DMSO; final DMSO concentration 0.3%) was incubated with human liver microsomes (0.25 mg/mL) and NADPH (1 mM) in the presence of a cytochrome P450 isoform-specific probe substrate. The metabolites were monitored by LC-MS/MS and a decrease in the formation of the metabolite compared to the vehicle control used to calculate an IC50 value (test compound concentration which produces 50% inhibition). A cytochrome P450 isoform-specific selective inhibitor was screened alongside the test compounds as a positive control.

CYP2C8 = molecular target: T2, CYP2C8 (Homo sapiens, UniProt P10632); experiment: Cytochrome P450 inhibition CYP2C8; details: human liver microsomes
T2 construct: from tissue; host or cells: human liver microsomes
T2 sequence (P10632 1-490): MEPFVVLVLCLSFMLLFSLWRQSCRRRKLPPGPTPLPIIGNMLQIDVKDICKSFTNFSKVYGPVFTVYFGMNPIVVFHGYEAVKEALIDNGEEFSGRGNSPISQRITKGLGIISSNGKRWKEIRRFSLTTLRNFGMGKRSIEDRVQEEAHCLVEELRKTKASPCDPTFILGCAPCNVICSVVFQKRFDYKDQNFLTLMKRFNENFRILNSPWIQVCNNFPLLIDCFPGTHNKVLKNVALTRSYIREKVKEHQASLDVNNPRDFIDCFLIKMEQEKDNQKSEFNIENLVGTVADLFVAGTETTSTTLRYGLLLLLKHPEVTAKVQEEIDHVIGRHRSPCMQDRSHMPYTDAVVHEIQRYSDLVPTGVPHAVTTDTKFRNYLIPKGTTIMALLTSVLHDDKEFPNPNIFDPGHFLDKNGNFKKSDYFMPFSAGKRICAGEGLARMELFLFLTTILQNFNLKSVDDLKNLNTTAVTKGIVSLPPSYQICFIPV
Procedure: as §1

CYP2C19 = molecular target: T3, CYP2C19 (Homo sapiens, UniProt P33261); experiment: Cytochrome P450 inhibition CYP2C19; details: human liver microsomes
T3 construct: from tissue; host or cells: human liver microsomes
T3 sequence (P33261 whole entry): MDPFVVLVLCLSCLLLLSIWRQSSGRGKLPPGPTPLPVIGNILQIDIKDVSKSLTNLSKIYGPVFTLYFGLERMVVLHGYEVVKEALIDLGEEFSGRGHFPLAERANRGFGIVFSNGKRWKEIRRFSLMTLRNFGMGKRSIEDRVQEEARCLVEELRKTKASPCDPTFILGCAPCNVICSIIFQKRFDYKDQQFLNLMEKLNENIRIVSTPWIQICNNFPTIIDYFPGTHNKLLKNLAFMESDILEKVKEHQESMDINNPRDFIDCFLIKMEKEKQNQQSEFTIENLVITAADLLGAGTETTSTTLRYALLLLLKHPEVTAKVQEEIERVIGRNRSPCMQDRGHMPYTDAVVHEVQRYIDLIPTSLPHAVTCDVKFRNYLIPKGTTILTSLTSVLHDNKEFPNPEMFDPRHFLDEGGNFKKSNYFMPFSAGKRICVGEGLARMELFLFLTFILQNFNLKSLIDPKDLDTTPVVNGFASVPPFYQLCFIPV
Procedure: as §1

CYP2D6 = molecular target: T4, CYP2D6 (Homo sapiens, UniProt P10635); experiment: Cytochrome P450 inhibition CYP2D6; details: human liver microsomes
T4 construct: from tissue; host or cells: human liver microsomes
T4 sequence (P10635 whole entry): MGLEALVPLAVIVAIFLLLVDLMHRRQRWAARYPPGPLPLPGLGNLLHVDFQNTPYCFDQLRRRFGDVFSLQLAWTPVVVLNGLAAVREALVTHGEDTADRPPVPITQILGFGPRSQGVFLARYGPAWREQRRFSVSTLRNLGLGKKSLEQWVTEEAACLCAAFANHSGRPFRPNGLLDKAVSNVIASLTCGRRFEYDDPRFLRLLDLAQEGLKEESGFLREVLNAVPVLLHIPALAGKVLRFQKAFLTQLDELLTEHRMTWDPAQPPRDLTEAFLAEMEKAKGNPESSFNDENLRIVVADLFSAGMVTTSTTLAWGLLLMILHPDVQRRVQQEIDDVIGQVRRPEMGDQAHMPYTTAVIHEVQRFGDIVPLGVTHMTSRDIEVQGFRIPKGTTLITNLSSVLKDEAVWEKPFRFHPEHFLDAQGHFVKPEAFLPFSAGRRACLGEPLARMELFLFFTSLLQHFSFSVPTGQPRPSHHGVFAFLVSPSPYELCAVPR
Procedure: as §1

Compound	half-life at 3 μM [1]	Papp A→B at 60 min, 10 μM (MDR1)	Papp B→A at 60 min, 10 μM (MDR1)	IC50 (CYP2B6)	IC50 (CYP2C8)	IC50 (CYP2C19)	IC50 (CYP2D6)
CS(=O)(=O)N1CCC(n2c(CN3C(=O)C4(CC4)c4ccc(F)cc43)nc3cc(Cl)ccc32)CC1 [Compound 33, 1′-{[5-Chloro-1-(1-methanesulfonylpiperidin-4-yl)-1H-1,3-benzodiazol-2-yl]methyl}-6′-fluoro-1′,2′-dihydrospiro[cyclopropane-1,3′-indole]-2′-one]	8.1 h	124 nm/s	355 nm/s	> 25 µM	> 25 µM	> 25 µM	> 25 µM
CCS(=O)(=O)N1CCC(n2c(CN3C(=O)C4(CC4)c4ccc(F)cc43)nc3cc(Cl)ccc32)CC1 [Compound 35, 1′-({5-Chloro-1-[1-(ethanesulfonyl)piperidin-4-yl]-1H-1,3-benzodiazol-2-yl}methyl)-6′-fluoro-1′,2′-dihydrospiro[cyclopropane-1,3′-indole]-2′-one]	0.577 h	127 nm/s	228 nm/s	–	–	–	–
